Source: patent publication US20060116518A1, “Novel phenanthridines” (Altana Pharma AG, priority 2002, published 2006)

Structure (SMILES) | melting point
CCN(CC)C(=N)NC(=O)c1ccc(C2=N[C@@H]3CCCC[C@@H]3c3cc(OC)c(OC)cc32)cc1 [Compound 1, N′-{-[4-((4aR,10bR)-8,9-Dimethoxy-1,2,3,4,4a,10b-hexahydrophenanthridin-6yl)-phenyl]-methanoyl}-N,N-diethylquanidine] | 132 to 135 °C
COc1cc2c(cc1OC)C1CCCCC1N=C2c1ccc(C(=O)NC(=N)N2CCN(C)CC2)cc1 (stereo not drawn) [Compound 5] | 133 °C
COc1cc2c(cc1OC)C1CCCCC1N=C2c1ccc(C(=O)NC(=N)N2CCCC2)cc1 [Compound 9, 4-((4aR,10bR)-8,9-Dimethoxy-1,2,3,4,4a.10b-hexahydro-phenanthridin-6-yl)-N-(1-imino-1-pyrrolidin-1-yl-methyl)-benzamide] | 126 °C
COc1cc2c(cc1OC)[C@H]1CCCC[C@H]1N=C2c1ccc(C(=O)NC(=N)n2nc(C)cc2C)cc1 [Compound 11, 4((4aR,10bR)-8,9-Dimethoxy-1,2,3,4,4a,10b-hexahydro-phenanthridin-6-yl)-N-[1-(3,5-dimethyl-pyrazol-1-yl)-1-imino-methyl]-benzamide] | 179 to 180 °C
CCN(CC)C(=N)NC(=O)c1cccc(C2=NC3CCCCC3c3cc(OC)c(OC)cc32)c1 [Compound 12, N′-{1[3-((4aR,10bR)-8,9-Dimethoxy-1,2,3,4,a,10b-hexahydrophenanthridin-6-yl)-phenyl]-methanoyl}-N,N-diethylquanidine] | 89 to 91 °C
COc1cc2c(cc1OC)[C@H]1CCCC[C@H]1N=C2c1cccc(C(=O)NC(=N)N2CCOCC2)c1 [Compound 13, 3-((4aR,10bR)-8,9-Dimethoxy-1,2,3,4,4a,10b-hexahydrophenanthridin-6-yl)-N-(1-imino-1-morpholin-4yl-methyl)-benzamide] | 187 to 188 °C
